Experimental data from ChEMBL document CHEMBL3286158, “Novel pyridyl- or isoquinolinyl-substituted indolines and indoles as potent and selective aldosterone synthase inhibitors” (J Med Chem, 2014).

Target: Cytochrome P450 2C9 (Homo sapiens, UniProt P11712)
Assay: Inhibition of CYP2C9 using recombinant human CYP enzyme at a single time point by LC-MS/MS analysis
Settings: not given

Cytochrome P450 2C9, sequence (P11712 whole entry): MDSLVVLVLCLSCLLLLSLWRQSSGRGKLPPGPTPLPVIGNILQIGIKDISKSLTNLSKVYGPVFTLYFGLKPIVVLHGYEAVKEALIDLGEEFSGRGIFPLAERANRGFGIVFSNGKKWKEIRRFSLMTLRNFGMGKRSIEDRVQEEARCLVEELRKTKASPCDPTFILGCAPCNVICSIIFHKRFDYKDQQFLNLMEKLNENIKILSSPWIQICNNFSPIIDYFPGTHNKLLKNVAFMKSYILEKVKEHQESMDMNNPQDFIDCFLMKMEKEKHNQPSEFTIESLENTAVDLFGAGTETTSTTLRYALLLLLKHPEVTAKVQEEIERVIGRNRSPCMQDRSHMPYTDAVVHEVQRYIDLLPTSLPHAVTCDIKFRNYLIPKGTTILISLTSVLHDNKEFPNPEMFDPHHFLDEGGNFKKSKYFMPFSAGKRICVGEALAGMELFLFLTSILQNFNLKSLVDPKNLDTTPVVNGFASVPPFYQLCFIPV

Row | IC50 [µM] | Structure (SMILES)
1 | > 50 | CCC(=O)N1CCc2cc(-c3cncc4ccccc34)ccc21
2 | > 50 | CC(=O)N1CCc2cc(-c3cnccc3C)ccc21

Target: Cytochrome P450 2D6 (Homo sapiens, UniProt P10635)
Assay: Inhibition of CYP2D6 using recombinant human CYP enzyme at a single time point by LC-MS/MS analysis
Settings: not given

Cytochrome P450 2D6, sequence (P10635 whole entry): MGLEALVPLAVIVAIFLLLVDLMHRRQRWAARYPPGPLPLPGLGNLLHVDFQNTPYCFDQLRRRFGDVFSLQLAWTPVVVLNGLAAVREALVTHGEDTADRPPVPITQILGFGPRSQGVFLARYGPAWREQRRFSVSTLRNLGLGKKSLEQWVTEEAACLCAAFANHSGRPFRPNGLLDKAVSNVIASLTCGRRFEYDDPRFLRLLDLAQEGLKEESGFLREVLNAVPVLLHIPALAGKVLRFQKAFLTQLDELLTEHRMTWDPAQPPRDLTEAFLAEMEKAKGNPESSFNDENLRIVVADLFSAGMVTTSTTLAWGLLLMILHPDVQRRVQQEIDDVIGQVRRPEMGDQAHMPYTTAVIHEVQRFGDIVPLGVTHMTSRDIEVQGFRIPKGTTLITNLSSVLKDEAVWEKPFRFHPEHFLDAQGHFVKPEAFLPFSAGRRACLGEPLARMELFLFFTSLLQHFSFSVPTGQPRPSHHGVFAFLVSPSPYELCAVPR

Row | IC50 [µM] | Structure (SMILES)
3 | > 50 | CCC(=O)N1CCc2cc(-c3cncc4ccccc34)ccc21
4 | > 50 | CC(=O)N1CCc2cc(-c3cnccc3C)ccc21

Target: T1, Cytochrome P450 11B2, mitochondrial (Homo sapiens, UniProt P19099)
T1 sequence (P19099 whole entry): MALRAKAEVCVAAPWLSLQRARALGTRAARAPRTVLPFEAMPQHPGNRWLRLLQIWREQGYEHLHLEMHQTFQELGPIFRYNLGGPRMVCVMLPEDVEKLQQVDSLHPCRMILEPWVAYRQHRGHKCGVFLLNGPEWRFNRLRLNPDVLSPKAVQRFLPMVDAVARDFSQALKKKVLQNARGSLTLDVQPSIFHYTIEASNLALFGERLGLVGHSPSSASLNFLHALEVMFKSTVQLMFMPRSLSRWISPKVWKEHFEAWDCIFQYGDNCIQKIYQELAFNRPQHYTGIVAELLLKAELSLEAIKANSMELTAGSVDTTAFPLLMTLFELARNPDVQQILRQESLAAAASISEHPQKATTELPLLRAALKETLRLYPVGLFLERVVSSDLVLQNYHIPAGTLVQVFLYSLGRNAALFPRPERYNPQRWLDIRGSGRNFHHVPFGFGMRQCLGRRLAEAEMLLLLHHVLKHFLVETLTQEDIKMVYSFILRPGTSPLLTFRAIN
Assay: Inhibition of human CYP11B2 expressed in hamster V79MZh cells using deoxycorticosterone as substrate at 500 nM
Format: cell-based
Settings: not given

Row | Structure (SMILES) | inhibition [%]
5 | CCC(=O)N1CCc2cc(-c3cccnc3)ccc21 | 66
6 | O=C(CCCl)N1CCc2cc(-c3cccnc3)ccc21 | 7
7 | O=C(Cc1ccccc1)N1CCc2cc(-c3cccnc3)ccc21 | 2.2
8 | CCC(=O)N1CCc2cc(-c3cncc4ccccc34)ccc21 | 100
9 | COc1cncc(-c2ccc3c(c2)CCN3C(C)=O)c1 | 100
10 | CC(=O)n1ccc2cc(-c3cccnc3)ccc21 | 98

Other lines, results leading:

Row | inhibition [%] | Structure (SMILES)
11 | 26 | COc1ccc(C(=O)N2CCc3cc(-c4cccnc4)ccc32)cc1
12 | 98 | O=C(C1CC1)N1CCc2cc(-c3cncc4ccccc34)ccc21
13 | 90 | CC(C)C(=O)N1CCc2cc(-c3cncc4ccccc34)ccc21
14 | 93 | CC(=O)N1CCc2cc(-c3cncc(F)c3)ccc21
15 | 100 | CC(=O)N1CCc2cc(-c3cnccc3C)ccc21

Tested on: not listed separately
Assay: Intrinsic clearance in human liver microsomes at 1 uM by LC-MS/MS analysis
Settings: read-out: CLH

Row | microsomal CLint [µL/min/mg] | Structure (SMILES)
16 | 91 | CCC(=O)N1CCc2cc(-c3cncc4ccccc34)ccc21
17 | 81 | CC(=O)N1CCc2cc(-c3cnccc3C)ccc21

Target: T1, Cytochrome P450 11B2, mitochondrial
Assay: not given
Settings: not given

Row | Structure (SMILES) | IC50 [µM]
18 | O=C(CCCl)N1CCc2cc(-c3cccnc3)ccc21 | > 5
19 | O=C(Cc1ccccc1)N1CCc2cc(-c3cccnc3)ccc21 | > 5

Results, then the compound that gave them:

Row | IC50 [µM] | Structure (SMILES)
20 | 0.03 | O=C(C1CC1)N1CCc2cc(-c3cncc4ccccc34)ccc21
21 | 0.152 | CC(C)C(=O)N1CCc2cc(-c3cncc4ccccc34)ccc21
22 | 0.061 | CC(=O)N1CCc2cc(-c3cncc(F)c3)ccc21

Target: T2, Cytochrome P450 1A2 (Homo sapiens, UniProt P05177)
T2 sequence (P05177 whole entry): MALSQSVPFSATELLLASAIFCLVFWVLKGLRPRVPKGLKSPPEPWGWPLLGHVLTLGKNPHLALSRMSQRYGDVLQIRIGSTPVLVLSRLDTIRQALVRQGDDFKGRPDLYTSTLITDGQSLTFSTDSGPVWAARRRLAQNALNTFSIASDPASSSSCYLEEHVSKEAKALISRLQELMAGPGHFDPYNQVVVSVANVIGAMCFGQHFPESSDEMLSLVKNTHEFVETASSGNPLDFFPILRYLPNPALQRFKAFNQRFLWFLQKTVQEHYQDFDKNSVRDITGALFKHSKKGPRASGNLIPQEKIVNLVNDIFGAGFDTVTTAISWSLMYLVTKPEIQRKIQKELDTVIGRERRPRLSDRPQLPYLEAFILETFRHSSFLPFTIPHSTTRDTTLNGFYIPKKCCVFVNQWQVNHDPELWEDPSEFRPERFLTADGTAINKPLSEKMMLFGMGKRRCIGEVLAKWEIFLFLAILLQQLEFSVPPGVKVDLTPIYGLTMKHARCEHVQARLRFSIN
Assay: Inhibition of CYP1A2 using recombinant human CYP enzyme at a single time point by LC-MS/MS analysis
Settings: not given

Row | IC50 [µM] | Structure (SMILES)
23 | > 50 | CCC(=O)N1CCc2cc(-c3cncc4ccccc34)ccc21
24 | > 50 | CC(=O)N1CCc2cc(-c3cnccc3C)ccc21

Target: Cytochrome P450 3A4 (Homo sapiens, UniProt P08684)
Assay: Inhibition of CYP3A4 using recombinant human CYP enzyme at a single time point by LC-MS/MS analysis
Settings: not given

Cytochrome P450 3A4, sequence (P08684 whole entry): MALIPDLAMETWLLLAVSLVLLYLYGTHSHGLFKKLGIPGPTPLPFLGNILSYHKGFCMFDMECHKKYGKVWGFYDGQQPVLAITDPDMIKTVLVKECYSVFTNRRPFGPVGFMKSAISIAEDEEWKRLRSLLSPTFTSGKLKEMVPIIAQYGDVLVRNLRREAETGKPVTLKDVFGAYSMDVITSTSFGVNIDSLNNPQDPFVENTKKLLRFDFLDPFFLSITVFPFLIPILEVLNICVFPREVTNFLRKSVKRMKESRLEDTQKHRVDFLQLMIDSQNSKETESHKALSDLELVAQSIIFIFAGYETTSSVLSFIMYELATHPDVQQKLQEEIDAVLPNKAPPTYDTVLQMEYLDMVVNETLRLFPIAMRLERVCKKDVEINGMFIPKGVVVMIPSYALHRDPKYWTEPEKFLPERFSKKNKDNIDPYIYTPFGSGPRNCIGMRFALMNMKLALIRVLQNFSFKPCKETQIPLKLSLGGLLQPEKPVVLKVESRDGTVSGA

Row | IC50 [µM] | Structure (SMILES)
25 | > 50 | CCC(=O)N1CCc2cc(-c3cncc4ccccc34)ccc21
26 | > 50 | CC(=O)N1CCc2cc(-c3cnccc3C)ccc21

Target: Cytochrome P450 2C19 (Homo sapiens, UniProt P33261)
Assay: Inhibition of CYP2C19 using recombinant human CYP enzyme at a single time point by LC-MS/MS analysis
Settings: not given

Cytochrome P450 2C19, sequence (P33261 whole entry): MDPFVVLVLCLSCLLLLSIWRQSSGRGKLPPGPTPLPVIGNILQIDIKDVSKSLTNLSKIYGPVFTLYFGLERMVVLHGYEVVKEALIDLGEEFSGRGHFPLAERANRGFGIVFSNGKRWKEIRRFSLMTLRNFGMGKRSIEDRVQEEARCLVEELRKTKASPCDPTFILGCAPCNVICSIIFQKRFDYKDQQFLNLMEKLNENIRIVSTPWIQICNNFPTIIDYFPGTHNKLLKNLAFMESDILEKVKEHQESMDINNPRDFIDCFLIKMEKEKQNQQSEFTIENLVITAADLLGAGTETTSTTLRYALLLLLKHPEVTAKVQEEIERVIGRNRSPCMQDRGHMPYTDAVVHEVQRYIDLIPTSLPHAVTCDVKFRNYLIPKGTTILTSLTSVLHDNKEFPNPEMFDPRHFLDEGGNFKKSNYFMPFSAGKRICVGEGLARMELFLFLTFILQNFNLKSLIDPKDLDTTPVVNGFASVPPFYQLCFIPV

Row | IC50 [µM] | Structure (SMILES)
27 | > 50 | CCC(=O)N1CCc2cc(-c3cncc4ccccc34)ccc21
28 | > 50 | CC(=O)N1CCc2cc(-c3cnccc3C)ccc21

Target: T3, Cytochrome P450 11B1, mitochondrial (Homo sapiens, UniProt P15538)
T3 sequence (P15538 whole entry): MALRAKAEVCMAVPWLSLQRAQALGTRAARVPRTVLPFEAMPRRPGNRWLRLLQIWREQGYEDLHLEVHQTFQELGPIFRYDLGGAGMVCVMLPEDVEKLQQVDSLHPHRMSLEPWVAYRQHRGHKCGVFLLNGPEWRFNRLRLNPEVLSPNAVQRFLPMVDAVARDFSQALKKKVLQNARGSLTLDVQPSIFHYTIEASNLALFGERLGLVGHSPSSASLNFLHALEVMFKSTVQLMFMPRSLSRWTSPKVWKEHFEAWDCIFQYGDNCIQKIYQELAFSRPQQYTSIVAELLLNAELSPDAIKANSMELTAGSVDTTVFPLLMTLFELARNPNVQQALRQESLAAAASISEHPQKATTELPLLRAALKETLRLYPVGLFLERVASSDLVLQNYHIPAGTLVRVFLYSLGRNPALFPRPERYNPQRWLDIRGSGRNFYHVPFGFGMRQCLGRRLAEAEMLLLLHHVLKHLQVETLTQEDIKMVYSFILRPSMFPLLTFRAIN
Assay: not given
Settings: not given

Row | Structure (SMILES) | IC50 [µM]
29 | O=C(CCCl)N1CCc2cc(-c3cccnc3)ccc21 | > 5
30 | O=C(Cc1ccccc1)N1CCc2cc(-c3cccnc3)ccc21 | 1.52

Further lines, results first:

Row | IC50 [µM] | Structure (SMILES)
31 | > 5 | COc1ccc(C(=O)N2CCc3cc(-c4cccnc4)ccc32)cc1
32 | 3.72 | O=C(C1CC1)N1CCc2cc(-c3cncc4ccccc34)ccc21
33 | 6.09 | CC(C)C(=O)N1CCc2cc(-c3cncc4ccccc34)ccc21
34 | 6.81 | CC(=O)N1CCc2cc(-c3cncc(F)c3)ccc21

Target: T4, CYP11B1 (Homo sapiens, UniProt P15538)
T4 sequence (P15538 whole entry): T3 sequence (P15538 whole entry)
Assay: Inhibition of human CYP11B1 expressed in hamster V79MZh cells using deoxycorticosterone as substrate at 500 nM
Format: cell-based
Settings: hamster V79MZh cells expressing human CYP11B1, probe deoxycorticosterone

Row | Structure (SMILES) | inhibition [%]
35 | CCC(=O)N1CCc2cc(-c3cccnc3)ccc21 | 0.8
36 | O=C(CCCl)N1CCc2cc(-c3cccnc3)ccc21 | 6
37 | O=C(Cc1ccccc1)N1CCc2cc(-c3cccnc3)ccc21 | 26
38 | CCC(=O)N1CCc2cc(-c3cncc4ccccc34)ccc21 | 39
39 | COc1cncc(-c2ccc3c(c2)CCN3C(C)=O)c1 | 48
40 | CC(=O)n1ccc2cc(-c3cccnc3)ccc21 | 25

The remaining lines, values ahead:

Row | inhibition [%] | Structure (SMILES)
41 | 1.6 | COc1ccc(C(=O)N2CCc3cc(-c4cccnc4)ccc32)cc1
42 | 29 | O=C(C1CC1)N1CCc2cc(-c3cncc4ccccc34)ccc21
43 | 11 | CC(C)C(=O)N1CCc2cc(-c3cncc4ccccc34)ccc21
44 | 11 | CC(=O)N1CCc2cc(-c3cncc(F)c3)ccc21
45 | 70 | CC(=O)N1CCc2cc(-c3cnccc3C)ccc21

Target: T5, CYP19 (Homo sapiens, UniProt P11511)
T5 sequence (P11511 whole entry): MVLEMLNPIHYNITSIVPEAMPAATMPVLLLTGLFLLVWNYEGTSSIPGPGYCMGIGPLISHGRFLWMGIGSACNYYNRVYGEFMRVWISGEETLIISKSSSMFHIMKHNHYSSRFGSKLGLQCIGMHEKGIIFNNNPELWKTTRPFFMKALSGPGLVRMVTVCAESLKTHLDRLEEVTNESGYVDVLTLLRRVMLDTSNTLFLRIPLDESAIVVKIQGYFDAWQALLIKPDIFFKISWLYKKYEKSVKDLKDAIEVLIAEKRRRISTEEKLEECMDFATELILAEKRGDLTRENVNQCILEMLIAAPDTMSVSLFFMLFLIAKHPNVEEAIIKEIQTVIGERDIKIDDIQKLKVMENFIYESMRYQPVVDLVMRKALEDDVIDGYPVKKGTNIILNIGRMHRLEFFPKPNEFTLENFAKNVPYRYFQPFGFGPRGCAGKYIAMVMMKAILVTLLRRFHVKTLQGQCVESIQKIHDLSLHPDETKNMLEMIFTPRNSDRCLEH
Assay: Inhibition of CYP19 in human placental microsomes at 500 nM using [1beta-3H]androstenedione as substrate
Set-up: species or system Placenta
Settings: probe [1beta-3H]androstenedione

Row | Structure (SMILES) | inhibition at 0.5 µM [%]
46 | CCC(=O)N1CCc2cc(-c3cccnc3)ccc21 | < 7
47 | CCC(=O)N1CCc2cc(-c3cncc4ccccc34)ccc21 | < 7
48 | COc1cncc(-c2ccc3c(c2)CCN3C(C)=O)c1 | < 7
49 | CC(=O)n1ccc2cc(-c3cccnc3)ccc21 | < 7

Results, then the compound that gave them:

Row | inhibition at 0.5 µM [%] | Structure (SMILES)
50 | < 7 | O=C(C1CC1)N1CCc2cc(-c3cncc4ccccc34)ccc21
51 | < 7 | CC(C)C(=O)N1CCc2cc(-c3cncc4ccccc34)ccc21
52 | < 7 | CC(=O)N1CCc2cc(-c3cncc(F)c3)ccc21
53 | < 7 | CC(=O)N1CCc2cc(-c3cnccc3C)ccc21

Target: T6, CYP17 (Homo sapiens, UniProt P05093)
T6 sequence (P05093 whole entry): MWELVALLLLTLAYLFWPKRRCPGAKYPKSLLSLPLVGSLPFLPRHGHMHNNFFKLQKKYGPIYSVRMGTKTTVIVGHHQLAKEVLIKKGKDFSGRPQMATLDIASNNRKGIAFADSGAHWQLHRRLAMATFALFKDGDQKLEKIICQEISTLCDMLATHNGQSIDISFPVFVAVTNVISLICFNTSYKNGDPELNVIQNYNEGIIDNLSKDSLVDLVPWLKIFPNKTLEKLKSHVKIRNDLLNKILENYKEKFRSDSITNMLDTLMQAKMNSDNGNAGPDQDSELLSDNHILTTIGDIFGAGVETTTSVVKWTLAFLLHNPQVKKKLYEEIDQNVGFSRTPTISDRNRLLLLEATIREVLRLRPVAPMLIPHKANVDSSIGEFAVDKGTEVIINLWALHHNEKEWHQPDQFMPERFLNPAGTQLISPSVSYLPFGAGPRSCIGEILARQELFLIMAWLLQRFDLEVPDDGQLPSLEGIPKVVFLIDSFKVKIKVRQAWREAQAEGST
Assay: Inhibition of human CYP17 expressed in Escherichia coli co-expressing NADPH-P450 reductase at 2 uM using progesterone as substrate
Settings: probe progesterone

Row | Structure (SMILES) | inhibition at 2 µM [%]
54 | CCC(=O)N1CCc2cc(-c3cccnc3)ccc21 | < 7
55 | CCC(=O)N1CCc2cc(-c3cncc4ccccc34)ccc21 | < 7
56 | COc1cncc(-c2ccc3c(c2)CCN3C(C)=O)c1 | < 7
57 | CC(=O)n1ccc2cc(-c3cccnc3)ccc21 | < 7

Next, values leading:

Row | inhibition at 2 µM [%] | Structure (SMILES)
58 | < 7 | O=C(C1CC1)N1CCc2cc(-c3cncc4ccccc34)ccc21
59 | < 7 | CC(C)C(=O)N1CCc2cc(-c3cncc4ccccc34)ccc21
60 | < 7 | CC(=O)N1CCc2cc(-c3cncc(F)c3)ccc21
61 | < 7 | CC(=O)N1CCc2cc(-c3cnccc3C)ccc21

Tested on: not listed separately
Assay: Half life in human liver microsomes at 1 uM by LC-MS/MS analysis
Settings: not given

Row | half-life [min] | Structure (SMILES)
62 | 9 | O=C1CCc2cc(-c3cccnc3)cc3c2N1CC3
63 | 15 | CCC(=O)N1CCc2cc(-c3cncc4ccccc34)ccc21
64 | 17 | CC(=O)N1CCc2cc(-c3cnccc3C)ccc21
